For 13 compounds, EC50 results are on record in patent US20150307461A1, “ANTIVIRAL COMPOUNDS” (priority 2012, published 2015).

The structures appear in SMILES notation.

Common to all, as to assay: microbe, parasite or virus in culture
Assay [1] concerns Pseudotyped HCV GT1a particles (HCVpp). It counts as cell-based, HCV GT1a H77 strain. The settings on record: Hepatitis C virus, 72 h, read-out: HCVpp GT-1a (EC50, μM).
For assay [2], the system named is pseudotyped VSV G particles (VSVpp). It counts as cell-based. The settings on record: Vesicular stomatitis virus, 72 h, read-out: VSVpp (EC50, μM).
Assay [3] has as its system Pseudotyped HCV GT1b particles (HCVpp). Type of assay: cell-based, HCV GT1b Con1 strain. Conditions: Hepatitis C virus, 72 h, read-out: HCVpp GT-1b (EC50, μM).

The term EC50 denotes the concentration needed to bring the measured effect to its halfway point.

Turning to `N#Cc1c(Cl)cc(Nc2n[nH]c(N)n2)cc1C(F)(F)F` [Compound I-43, 4-(5-amino-1H-1,2,4-triazol-3-ylamino)-2-chloro-6-(trifluoromethyl)benzonitrile], the EC50 was 0.038 µM in assay [1], 30.3 µM in assay [2] and 0.146 µM in assay [3].
For `N#Cc1cc(Cl)cc(Nc2n[nH]c(N)n2)c1` [Compound I-48, 3-(5-Amino-1H-[1,2,4]triazol-3-ylamino)-5-chloro-benzonitrile], in that order: 0.558 µM, 100 µM and 5.65 µM.
Take `Nc1nc(Nc2cc(Cl)cc(C(F)(F)F)c2)n[nH]1` [Compound I-50, N^3-(3-Chloro-5-trifluoromethyl-phenyl)-1H-[1,2,4]triazole-3,5-diamine]: the figures for the EC50 in assay [1], in assay [2] and in assay [3] were 0.094 µM, 100 µM and 1.1 µM, respectively.
Taken in the same sequence, the figures for `Nc1nc(Nc2ccc(Cl)c(C(F)(F)F)c2)n[nH]1` [Compound I-51, N^3-(4-Chloro-3-trifluoromethyl-phenyl)-1H-[1,2,4]triazole-3,5-diamine] were 0.475 µM, 53.7 µM and 3.44 µM.
Taken in the same sequence, the figures for `Nc1nc(Nc2cccc(OC(F)(F)F)c2)n[nH]1` [Compound I-52, N^3-(3-Trifluoromethoxy-phenyl)-1H-[1,2,4]triazole-3,5-diamine] were 2.39 µM, 100 µM and 12.6 µM.
Taken in the same sequence, the figures for `CC(C)c1cccc(Nc2n[nH]c(N)n2)c1` [Compound I-56, N^3-(3-Isopropyl-phenyl)-1H-[1,2,4]triazole-3,5-diamine] were 8.36 µM, 100 µM and 19.6 µM.
For `Nc1nc(Nc2cc(F)cc(C(F)(F)F)c2)n[nH]1` [Compound I-57, N^3-(3-Fluoro-5-trifluoromethyl-phenyl)-1H-[1,2,4]triazole-3,5-diamine], the EC50 in assay [1] was 0.146 µM; in assay [2] it was 100 µM; in assay [3] it was 0.624 µM.
On to `Nc1nc(Nc2cc(Cl)c(F)c(C(F)(F)F)c2)n[nH]1` [Compound I-60, N^3-(3-Chloro-4-fluoro-5-trifluoromethyl-phenyl)-1H-[1,2,4]triazole-3,5-diamine], for which the concentration for a half-maximal effect (EC50) was 0.071 µM in assay [1], 33.3 µM in assay [2] and 0.489 µM in assay [3].
On to `Nc1nc(Nc2cccc(S(F)(F)(F)(F)F)c2)n[nH]1` [Compound I-70, N*3*-(3-pentafluorosulfur-phenyl)-1H-[1,2,4]triazole-3,5-diamine], for which the EC50 in assay [1] was 0.152 µM; in assay [2], 100 µM; in assay [3], 1.1 µM.
Taken in the same sequence, the figures for `Nc1nc(Nc2cc(F)cc(S(F)(F)(F)(F)F)c2)n[nH]1` [Compound I-73, N*3*-(3-Fluoro-5-pentafluorosulfur-phenyl)-1H-[1,2,4]triazole-3,5-diamine] were 0.035 µM, 100 µM and 0.188 µM.
Taken in the same sequence, the figures for `CC(C)(C)C#Cc1c(Cl)cc(Nc2n[nH]c(N)n2)cc1Cl` [Compound I-79, N^3-[3,5-Dichloro-4-(3,3-dimethyl-but-1-ynyl)-phenyl]-1H-[1,2,4]triazole-3,5-diamine] were 0.051 µM, 66 µM and 3.31 µM.
Taken in the same sequence, the figures for `CC(C)(C)C#Cc1ccc(Nc2n[nH]c(N)n2)cc1Cl` [Compound I-80, N^3-[3-Chloro-4-(3,3-dimethyl-but-1-ynyl)-phenyl]-1H-[1,2,4]triazole-3,5-diamine] were 1.12 µM, 91.6 µM and 11.2 µM.
Take `Nc1nc(Nc2cc(F)c(Br)c(S(F)(F)(F)(F)F)c2)n[nH]1` [Compound I-83, N*3*-(4-Bromo-3-fluoro-5-pentafluorosulfur-phenyl)-1H-[1,2,4]triazole-3,5-diamine]: the 50% effective concentration (EC50) in assay [1] came to 0.076 µM; in assay [2], 32.5 µM; in assay [3], 0.17 µM.
